Values of other authors, collected in patent publication US10325677B2, “Apparatus and computerized method for optimizing or generating a sigma profile for a molecule” (Texas Tech University System, priority 2014, dated 2019).

Conditions: published in the literature

Structure (SMILES): Cn1c(=O)c2c(ncn2C)n(C)c1=O [Caffeine, caffeine]
- NRTL-SAC Conceptual Segment Number X: −0.105
- NRTL-SAC Conceptual Segment Number Y^+: 1.211
- NRTL-SAC Conceptual Segment Number Y^−: 0.282
- NRTL-SAC Conceptual Segment Number Z: 0.211
